Source: patent US6696497B2, “Fungicidal mixtures” (BASF Aktiengesellschaft, priority 2000, dated 2004)

Tests used:
[1] = test system: Plasmopara viticola on grapes; experiment: Fungicidal efficacy (3 day residual) on grapes, greenhouse; type: in vivo; settings: single compound
Experimental: (§1) The trials are carried out under greenhouse conditions in residual or curative applications. The fungicides are applied in single treatments, or in a combination comprising a benzophenone of formula I and a compound of formula II. The compounds are applied in form of an aqueous spray mix obtained from concentrated formulation or the technical material.
(§2) Grape plants of variety “Mueller-Thurgau” are grown in the greenhouse from small stake cuttings. When about 40 cm high, the number of leaves is reduced to 4 fully expanded leaves per plant.
(§3) The compounds are dissolved in acetone with 0.5% TRITON™ X155 (an alkylaryl polyether alcohol), and sprayed in concentrations and combinations as given in tables I and II with a three nozzle overhead fungicide sprayer to near run-off. Plants are then allowed to air-dry.
(§4) Inoculation precedes treatment in the case of curative evaluations and follows treatment in case of residual evaluations.
(§5) For inoculation an aqueous spore suspension of the pathogen is applied to the plant and the plants are kept 1-2 days in a moist infection chamber before being returned to the greenhouse where they are maintained by bottom watering.
(§6) Disease on the foliage as percent leaf area with disease symptoms/signs is evaluated about 7 days after inoculation. [formula]
(§7) Assessments of the diseases took place at the indicated day after the application of the compounds. Percent infected leaf area infected was evaluated. The efficacy of the compounds/compounds mixtures to control the diseases was calculated by using the formula given above.
(§8) Synergy was calculated using the % disease control values of specific treatments for the two COLBY formula given hereinabove.
Fungicidal efficacy of the mixture of BP-4+iprovalicarb (3 day residual) against Plasmopara viticola on grapes
tank mix was obtained from technical materials of BP-4 and iprovalicarb.

[2] = test system: Plasmopara viticola on grapes; experiment: Fungicidal efficacy (2 day curative) on grapes, greenhouse; type: in vivo; settings: single compound
Experimental: as §1, §2, §3, §4, §5, §6, §7, §8
Fungicidal efficacy of the mixture of BP-4+iprovalicarb (2 day curative) against Plasmopara viticola on grapes
The tank mix was obtained from technical materials of BP-4 and iprovalicarb.

| Compound | Observed Efficacy ([1]; dose rate 0.037 ppm) [%] | Observed Efficacy ([1]; dose rate 0.11 ppm) [%] | Observed Efficacy ([1]; dose rate 0.33 ppm) [%] | Observed Efficacy ([1]; dose rate 1 ppm) [%] | Observed Efficacy ([1]; dose rate 3 ppm) [%] | Observed Efficacy ([1]; dose rate 9 ppm) [%] | Observed Efficacy ([1]; dose rate 27 ppm) [%] | Observed Efficacy ([2]; dose rate 0.037 ppm) [%] | Observed Efficacy ([2]; dose rate 0.11 ppm) [%] | Observed Efficacy ([2]; dose rate 0.33 ppm) [%] | Observed Efficacy ([2]; dose rate 1 ppm) [%] | Observed Efficacy ([2]; dose rate 3 ppm) [%] | Observed Efficacy ([2]; dose rate 9 ppm) [%] | Observed Efficacy ([2]; dose rate 27 ppm) [%] |
| --- | --- | --- | --- | --- | --- | --- | --- | --- | --- | --- | --- | --- | --- | --- |
| COc1cc(C)c(C(=O)c2c(OC)ccc(Br)c2C)c(OC)c1OC [BP-4, 5-bromo-2′,6-dimethyl-2,4′,5′,6′-tetramethoxybenzophenone] | 0 | 0 | 0 | 0 | 1 | 4 | 6 | 0 | 0 | 0 | 0 | 0 | 0 | 2 |
| Cc1ccc(C(C)NC(=O)C(NC(=O)OC(C)C)C(C)C)cc1 (stereo not drawn) [iprovalicarb, [2-methyl-1-[1-(4-methylphenyl)-ethylaminocarbonyl]-propyl]-carbamic acid isopropyl ester, reference compound] | – | 0 | 3 | 11 | 55 | 90 | – | – | 0 | 2 | 11 | 63 | 91 | – |
